The conditions of data set [1]: reported value; cited from earlier work.
A further data set can be described thus: pKa of lipid headgroups. The class given is physicochemical. Conditions: lowest value that arranges all release-rate data points in a straight line. How it is done:
The Zeta potential of liposomes containing different fractions of the titratable domain-forming lipid DSPA was measured in phosphate buffer at different pH values (7.4, 5.5, and 4.0) using a Zetasizer ZS90 (Malvern instruments, Worcestershire, UK). Measurements were performed in 10 mM PBS with no salt. For these measurements, liposomes (1 mM total lipid) were prepared without grafted PEG-chains on their surface to allow for closer approach of the plane of shear to the physical surface of lipid membranes.
For all lipid fractions, the rate of content release attributed to discontinuities at the interfacial boundaries is linearly proportional to the square root of protonated DSPA lipids and therefore proportional to the total perimeter of the discontinuities' interface (open symbols).
This deviation of the pKa value can be attributed to several factors. First, the proposed model of small, circular domains is certainly an oversimplification. Second, because the apparent pKa of PA should depend on the surface charge density, the values of apparent pKa should be composition-dependent.

One may read the pKa as the negative logarithm of the acid dissociation constant.

Turning to phosphatidic acid, in data set [1], the pKa is given as 4.0. Further, the “pKa used to calculate the fraction of protonated DSPA lipids” value in the data set “pKa of lipid headgroups” is 4.5.
